Laboratory results taken from patent US20230114241A1, “METHODS OF TREATING EPILEPSY USING THE SAME” (Trevena, Inc., priority 2019, published 2023).

Tests used:
[1] = molecular target: T1, human sphingosine-1-phosphate receptor 1 (S1P1) (Homo sapiens, UniProt P21453); assay: β-Arrestin2 recruitment assay (PathHunter), S1P1 CHO-K1 cells; format: cell-based; details: for Emax: CHO-K1, β-arrestin2 recruitment, efficacy normalized to maximum efficacy of fingolimod, read-out: hS1P1 B-arrestin2 SPAN; for EC50: β-arrestin2 recruitment, potency, read-out: hS1P1 B-arrestin2 pEC50 (converted)
Experimental: Stable clonal Chinese hamster ovary K1 (CHO-K1) cells co-expressing EA-β-arrestin2 and the human sphingosine-1-phosphate receptor 1 (NM_001400, S1P1) with a C-terminal Prolink™ tag were purchased from DiscoverX corporation (Cat #: 93-0207C2).
Cell lines were cultured in AssayComplete™ Media 6 (DiscoverX Corporation, Cat #: 920018GF2) at 37° C. and 5% CO2 in a humidified CO2 and temperature-controlled incubator. To begin assay plating, cells were washed with Dulbecco's phosphate buffered saline (CellGro, Cat #: 21-031-CV) and lifted from the culturing flask by incubation (37° C., 5 min) with CellStripper (Cellgro, Cat #: 25-056-CI). […] Plated cells were incubated overnight at 37° C. and 5% CO2 in a humidified CO2 and temperature-controlled incubator.
Agonist-promoted β-arrestin2 recruitment to the sphingosine-1-phosphate 1 receptor was determined using the β-arrestin PathHunter® Detection kit (DiscoverX Corporation, Cat #: 93-0001). […] In cells that stably express these fusion proteins, stimulation with a cognate agonist results in the interaction of β-arrestin2 and the Prolink™-tagged GPCR. This allows the complementation of the two β-galactosidase fragments and results in the formation of a functional enzyme with β-galactosidase activity. […] Following a 60 minute incubation at 37° C. and 5% CO2 in a humidified CO2 and temperature-controlled incubator, the components of the β-arrestin PathHunter® Detection kit were added as per the manufacturer's instructions. After an hour incubation at room temperature, plates were analyzed by a BMG PheraStar microplate reader.
These values are normalized to fingolimod, a known agonist of the sphingosine-1-phosphate 1 receptor.
Target sequence in this assay (P21453 whole entry): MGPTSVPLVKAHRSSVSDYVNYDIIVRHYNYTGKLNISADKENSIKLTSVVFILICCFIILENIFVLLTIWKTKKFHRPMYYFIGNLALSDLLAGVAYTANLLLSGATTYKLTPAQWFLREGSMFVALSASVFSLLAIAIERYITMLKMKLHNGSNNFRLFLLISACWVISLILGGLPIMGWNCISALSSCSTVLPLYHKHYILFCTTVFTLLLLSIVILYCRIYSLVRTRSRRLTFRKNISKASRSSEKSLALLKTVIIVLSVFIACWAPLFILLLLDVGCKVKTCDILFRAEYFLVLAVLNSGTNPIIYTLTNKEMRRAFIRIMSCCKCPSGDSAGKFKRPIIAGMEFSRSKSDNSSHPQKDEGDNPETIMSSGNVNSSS
Target sequence in this assay (P32121 whole entry partner): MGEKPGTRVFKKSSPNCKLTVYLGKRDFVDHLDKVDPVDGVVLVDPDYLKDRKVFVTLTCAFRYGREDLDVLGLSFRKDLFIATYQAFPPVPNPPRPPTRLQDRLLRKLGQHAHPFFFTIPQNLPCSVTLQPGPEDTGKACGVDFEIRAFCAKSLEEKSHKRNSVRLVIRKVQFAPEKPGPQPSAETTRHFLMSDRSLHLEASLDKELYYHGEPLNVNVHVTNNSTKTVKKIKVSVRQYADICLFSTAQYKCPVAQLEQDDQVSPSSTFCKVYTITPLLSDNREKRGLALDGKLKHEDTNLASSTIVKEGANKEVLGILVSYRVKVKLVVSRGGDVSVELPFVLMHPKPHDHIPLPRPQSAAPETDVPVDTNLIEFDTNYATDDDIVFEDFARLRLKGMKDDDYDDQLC

[2] = molecular target: T1, human sphingosine-1-phosphate receptor 1 (S1P1); assay: Inhibition of cAMP production (HTRF cAMP HiRange), S1P1 CHO-K1 cells; format: cell-based; details: inhibition of cAMP production; for Emax: CHO-K1, efficacy normalized to maximum efficacy of fingolimod, read-out: hS1P1 CAMP SPAN; for EC50: potency, read-out: hS1P1 CAMP pEC50 (converted)
Summary of the method: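 CHO-K1 cells co-expressing human S1P1 (C-terminal ProLink tag) and EA-β-arrestin2, plated overnight; after 30 min compound incubation at 37 °C, intracellular cAMP measured by HTRF TR-FRET following 1 h at room temperature. Values normalized to fingolimod.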
Target sequence in this assay (P21453 whole entry): as the sequence (P21453 whole entry) above

Emax [1]	EC50 [1]	Emax [2]	EC50 [2]	SMILES
> 75%	> 10000 nM	> 75%	< 316 nM	CC(C)n1nnc2cc(-c3noc(-c4cccc(F)c4)n3)ccc21 [Compound 64, 5-(3-fluorophenyl)-3-(1-isopropyl-benzotriazol-5-yl)-1,2,4-oxadiazole]
> 75%	> 10000 nM	< 75%	> 316 nM	Cc1cc(C)cc(-c2noc(-c3ccc4c(c3)nnn4C3CCOCC3)n2)c1 [Compound 93, 5-[3-(3,5-dimethyl-phenyl)-1,2,4-oxadiazol-5-yl]-1-(oxan-4-yl)-1H-1,2,3-benzotriazole]
> 75%	< 10000 nM	> 75%	< 316 nM	CC(C)n1nnc2cc(-c3nsc(-c4ccccc4O)n3)ccc21 [Compound 112, 2-{3-[1-(propan-2-yl)-1H-1,2,3-benzotriazol-5-yl]-1,2,4-thiadiazol-5-yl}phenol]
< 75%	> 10000 nM	< 75%	> 316 nM	c1ccc(-c2noc(-c3ccc4[nH]nnc4c3)n2)cc1 [Compound 113, 5-(3-phenyl-1,2,4-oxadiazol-5-yl)-1H-1,2,3-benzotriazole]
< 75%	–	< 75%	> 316 nM	FC(F)(F)c1cccc(-c2noc(-c3ccc4c(c3)nnn4C3CCCC3)n2)c1 [Compound 118, 1-cyclopentyl-5-{3-[3-(trifluoromethyl)phenyl]-1,2,4-oxadiazol-5-yl}-1H-1,2,3-benzotriazole]
< 75%	< 10000 nM	> 75%	> 316 nM	COc1ccccc1-c1nnc(-c2ccc3c(c2)nnn3C(C)C)s1 [Compound 144, 5-[5-(2-methoxyphenyl)-1,3,4-thiadiazol-2-yl]-1-(propan-2-yl)-1H-1,2,3-benzotriazole]
< 75%	< 10000 nM	> 75%	< 316 nM	C=CCNc1ccc(-c2nc(-c3ccc4[nH]nnc4c3)no2)cc1C#N [Compound 145, 5-(3-(1H-benzo[d] [1,2,3]triazol-5-yl)-1,2,4-oxadiazol-5-yl)-2-(allylamino)benzonitrile]
< 75%	> 10000 nM	< 75%	> 316 nM	O=C1CC2(CCOCC2)Oc2ccc(-c3nc(-c4ccncc4)no3)cc21 [Compound 148, 6-[3-(pyridin-4-yl)-1,2,4-oxadiazol-5-yl]-3,4-dihydrospiro [1-benzopyran-2,4′-oxane]-4-one]
> 75%	> 10000 nM	> 75%	> 316 nM	CCC1(CC)CC(=O)c2cc(-c3nc(-c4ccc(C(=O)N(C)C)cc4)no3)ccc2O1 [Compound 151, 4-(5-(2,2-diethyl-4-oxochroman-6-yl)-1,2,4-oxadiazol-3-yl)-N,N-dimethylbenzamide]
< 75%	> 10000 nM	< 75%	> 316 nM	Cc1ccccc1C(C)c1noc(-c2ccc3c(c2)nnn3CC(C)C)n1 (centres unmarked) [Compound 154, 5-{3-[1-(2-methyl-phenyl)ethyl]-1,2,4-oxadiazol-5-yl}-1-(2-methylpropyl)-1H-1,2,3-benzotriazole]
< 75%	> 10000 nM	< 75%	> 316 nM	COc1cc(-c2noc(-c3ccc4c(c3)nnn4C3CC3)n2)ccn1 [Compound 155, 1-cyclopropyl-5-[3-(2-methoxypyridin-4-yl)-1,2,4-oxadiazol-5-yl]-1H-1,2,3-benzotriazole]
< 75%	> 10000 nM	< 75%	> 316 nM	Cc1cnc(-c2noc(-c3ccc4c(c3)nnn4C(C)C)n2)cn1 [Compound 157, 5-[3-(5-methylpyrazin-2-yl)-1,2,4-oxadiazol-5-yl]-1-(propan-2-yl)-1H-1,2,3-benzotriazole]
< 75%	> 10000 nM	< 75%	> 316 nM	Cc1cncc(-c2nc(-c3ccc4c(c3)nnn4C(C)C)no2)c1 [Compound 159, 3-(1-isopropyl-1H-benzo[d][1,2,3]triazol-5-yl)-5-(5-methylpyridin-3-yl)-1,2,4-oxadiazole]
< 75%	> 10000 nM	< 75%	> 316 nM	CCCn1nnc2cc(-c3nc(-c4ccccc4)no3)ccc21 [Compound 160, 5-(3-phenyl-1,2,4-oxadiazol-5-yl)-1-propyl-1H-1,2,3-benzotriazole]
> 75%	> 10000 nM	< 75%	> 316 nM	COC(=O)CCn1nnc2cc(-c3noc(-c4ccccc4Br)n3)ccc21 [Compound 161, methyl 3-(5-(5-(2-bromophenyl)-1,2,4-oxadiazol-3-yl)-1H-benzo[d][1,2,3]triazol-1-yl)propanoate]
> 75%	< 10000 nM	> 75%	> 316 nM	Cc1ccccc1-c1nc(-c2ccc3c(c2)nnn3C2CCCC2)no1 [Compound 162, 3-(1-cyclopentyl-1H-benzo[d][1,2,3]triazol-5-yl)-5-(o-tolyl)-1,2,4-oxadiazole]
< 75%	> 10000 nM	< 75%	> 316 nM	Cc1ccc(-c2noc(-c3ccc4c(c3)nnn4C3CCCC3)n2)cc1 [Compound 164, 1-cyclopentyl-5-[3-(4-methylphenyl)-1,2,4-oxadiazol-5-yl]-1H-1,2,3-benzotriazole]
> 75%	> 10000 nM	> 75%	> 316 nM	CC(C)n1nnc2cc(-c3nc(-c4cccnc4)no3)ccc21 [Compound 165, 1-(propan-2-yl)-5-[3-(pyridin-3-yl)-1,2,4-oxadiazol-5-yl]-1H-1,2,3-benzotriazole]
> 75%	> 10000 nM	< 75%	> 316 nM	Cc1ccc(-c2nc(-c3ccc4c(c3)nnn4C(C)C)no2)c(C)c1 [Compound 166, 5-(2,4-dimethylphenyl)-3-(1-isopropyl-1H-benzo[d][1,2,3]triazol-5-yl)-1,2,4-oxadiazole]
< 75%	> 10000 nM	< 75%	> 316 nM	CC(C)c1cc(-c2nc(-c3ccc4c(c3)nnn4C(C)C)no2)ccn1 [Compound 167, 3-(1-isopropyl-1H-benzo[d][1,2,3]triazol-5-yl)-5-(2-isopropyl-pyridin-4-yl)-1,2,4-oxadiazole]
> 75%	< 10000 nM	> 75%	< 316 nM	Cc1ccccc1-c1noc(-c2ccc3c(c2)nnn3C2CC2)n1 [Compound 171, 1-cyclopropyl-5-[3-(2-methylphenyl)-1,2,4-oxadiazol-5-yl]-1H-1,2,3-benzotriazole]
> 75%	> 10000 nM	> 75%	> 316 nM	CC(C)n1nnc2cc(-c3nc(-c4ccccc4O)no3)ccc21 [Compound 180, 2-(5-(1-isopropyl-1H-benzo[d][1,2,3]triazol-5-yl)-1,2,4-oxadiazol-3-yl)phenol]
< 75%	> 10000 nM	> 75%	> 316 nM	COc1ccccc1-c1cnc(-c2ccc3c(c2)nnn3C(C)C)s1 [Compound 184, 2-(1-isopropyl-1H-benzo[d][1,2,3]triazol-5-yl)-5-(2-methoxy-phenyl)thiazole]
> 75%	< 10000 nM	> 75%	< 316 nM	C=CCNc1ccc(-c2nc(-c3ccc4[nH]c(=O)oc4c3)no2)cc1C#N [Compound 189, 2-(allylamino)-5-(3-(2-oxo-2,3-dihydro-benzo[d]oxazol-6-yl)-1,2,4-oxadiazol-5-yl)benzonitrile]
< 75%	> 10000 nM	< 75%	> 316 nM	Cc1ccc(-c2noc(-c3ccc4c(c3)nnn4C3CCCC3)n2)s1 [Compound 192, 1-cyclopentyl-5-[3-(5-methylthiophen-2-yl)-1,2,4-oxadiazol-5-yl]-1H-1,2,3-benzotriazole]
< 75%	> 10000 nM	< 75%	> 316 nM	CCCn1nnc2cc(-c3nc(-c4ccc(C(F)(F)F)c(F)c4)no3)ccc21 [Compound 193, 5-{3-[3-fluoro-4-(trifluoromethyl)phenyl]-1,2,4-oxadiazol-5-yl}-1-propyl-1H-1,2,3-benzotriazole]
< 75%	> 10000 nM	< 75%	> 316 nM	COc1ccc(-c2nc(-c3ccc4c(c3)nnn4C3CCCC3)no2)cc1 [Compound 196, 3-(1-cyclopentyl-1H-benzo[d][1,2,3]triazol-5-yl)-5-(4-methoxyphenyl)-1,2,4-oxadiazole]
